Assays:
PHD = assay: NMR titration of PHD with BPC; type: binding
Protocol: (§1) NMR samples were buffered in 20 mM sodium phosphate (pH 7.5), 150 mM NaCl, 5 mM DTT, 5 mM β-mercaptoethanol, 2 mM TCEP, and 10 μM ZnSO4. The protein concentration was between 200 and 300 μM for all samples. The data were collected at 25 °C on Bruker spectrometers equipped with cryoprobes and operating at 500, 600, or 800 MHz. The assignment of backbone TTD–PHD resonances was accomplished using the ABACUS method ([29]) for which standard backbone and ^15N-edited NOESY spectra were collected using ^15N/^13C/^2H- or ^15N/^13C-labeled protein. All 3D experiments were acquired using non-uniform sampling and processed using the software MDDGUI ([30]) or qMDD ([31]). ^15N-Labeled TTD–PHD was used to acquire ^15N T1 and T2 relaxation and ^1H-^15N heteronuclear NOE measurements ([32]) collected using standard Bruker pulse schemes in an interleaved manner. For T1 measurements, the variable delay was set to 0.1, 0.4, 0.8, 1.5, 2.0, 2.5, 3.5, and 5 s. For T2 measurements, the variable delay was set to 16, 32, 48, 64, 80, 96, 128, and 144 ms. The D1 was 3 s for all experiments. Reported values were the average from two measurements. All spectra were processed using NMRPipe ([33]) and analyzed with SPARKY ([34]). […]
(§2) trated by the perturbation of I211, I212 and E281 resonances in HSQC spectra of the TTD in a competition assay. […]

TTD (UHRF1_121–286) = target: T1, TTD (UHRF1_121–286) (Homo sapiens, UniProt Q96T88); assay: HSQC competition of BPC and linker peptide on TTD; type: binding; conditions: BPC 2.4 mM, linker peptide 3.0 mM, 5% DMSO; I211, I212 and E281 resonances in HSQC
T1 construct: UHRF1_121–286 corresponding to the TTD; made in house
T1 sequence (Q96T88 121-286): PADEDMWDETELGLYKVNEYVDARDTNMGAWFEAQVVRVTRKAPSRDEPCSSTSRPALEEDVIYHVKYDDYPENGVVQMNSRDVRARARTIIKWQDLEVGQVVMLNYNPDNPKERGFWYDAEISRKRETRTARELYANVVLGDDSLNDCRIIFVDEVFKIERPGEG
Protocol: as §1, §2

N=C(N)N1CCC(Cc2ccccc2)CC1 [BPC, 4-benzylpiperidine-1-carboximidamide]
effect on PHD resonances (PHD; 3 mM BPC, 5% DMSO (12:1)): unaffected
interaction with PHD (PHD; separate NMR titration with PHD): no interaction
competition for the TTD groove (TTD (UHRF1_121–286)): compete directly for the TTD groove
